The term IC50 denotes the concentration that inhibits the measured activity by half.

Experimental findings from patent publication US10064839B2, “Methods of treating liver diseases” (Zafgen, Inc., priority 2012, dated 2018) are described below.

T1 sequence (P50579 whole entry): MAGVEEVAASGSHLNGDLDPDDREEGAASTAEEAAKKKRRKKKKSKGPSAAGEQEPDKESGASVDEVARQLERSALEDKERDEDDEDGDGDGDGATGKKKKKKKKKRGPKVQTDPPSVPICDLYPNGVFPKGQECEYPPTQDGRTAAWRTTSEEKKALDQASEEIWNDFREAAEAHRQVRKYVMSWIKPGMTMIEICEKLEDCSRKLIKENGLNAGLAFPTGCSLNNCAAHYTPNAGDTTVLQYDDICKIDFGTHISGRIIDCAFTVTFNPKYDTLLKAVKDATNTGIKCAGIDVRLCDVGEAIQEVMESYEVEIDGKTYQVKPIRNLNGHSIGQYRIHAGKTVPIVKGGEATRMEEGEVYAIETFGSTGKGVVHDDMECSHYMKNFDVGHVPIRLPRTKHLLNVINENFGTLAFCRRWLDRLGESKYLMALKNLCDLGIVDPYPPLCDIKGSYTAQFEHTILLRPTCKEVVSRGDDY

One assay has as its target T1, recombinant human MetAP2 (Homo sapiens, UniProt P50579).
T1 construct: made in house; host or cells: Sf9 insect cells
The assay can be described thus: Recombinant human MetAP2 inhibition assay (MAS substrate, Amplex red fluorescence). Type of assay: biochemical. As to conditions: human recombinant MetAP2 manganese enzyme, 0.75 mM MAS substrate, 30 minutes at 25° C., pH 7.5; read-out: Activity (MetAP2 IC50 class). The procedure: Compounds are tested for their capacity to inhibit recombinant human MetAP2 activity using the following assay.
Human recombinant MetAP2 expressed in Sf9 cells followed by affinity purification and EDTA treatment to remove endogenous active site cation was dialysed against MnCl2 to produce the manganese enzyme used in the assay. The assay was carried out for 30 minutes at 25° C. in 50 mM HEPES buffer containing 100 mM NaCl, pH 7.5 the presence of 0.75 mM Methionine-Alanine-Serine (MAS) substrate and 50 µg/ml amino acid oxidase using a dilution of purified MetAP2 giving >3-fold signal: noise. Cleavage of the substrate by MetAP2 and oxidation of free methionine by amino acid oxidase was detected and quantified using fluorescence generated by Amplex red (10-acetyl-3,7-dihydroxyphenoxazine) in combination with horseradish peroxidase which detects H2O2 released during the oxidation step. The fluorescent signal was detected using a multiwell fluorimeter. Compounds were diluted in DMSO prior to addition to assay buffer, the final DMSO concentration in the assay being 1%.
IC50 values are calculated using the XLfit software package (version 2.0.5).
Turning to `CN(C)CCCNc1ccccc1S(=O)(=O)Nc1ccc2c(c1C(=O)O)OCC1CC21` (single isomer, unassigned), the IC50 is under 50 nM.

Consider `CCN1CC(CNc2ccccc2S(=O)(=O)Nc2ccc3c(c2C(=O)O)OC[C@@H]2C[C@H]32)C1` (racemic) [(1aRS,7bSR)-5-{2-[(1-Ethylazetidin-3-ylmethyl)amino]benzene-sulfonylamino}-1,1a,2,7b-tetrahydrocyclopropa[c]chromene-4-carboxylic acid], for which the half-maximal inhibitory concentration (IC50) is 50 to 500 nM.

Consider `O=C(O)c1c(NS(=O)(=O)c2ccc(F)cc2/C=C\CN2CCCC2)ccc2c1OCC1CC21` (single isomer, unassigned) [listing 1 of 2 here], for which the IC50 was 50 to 500 nM.

On to `CCN(CC)C/C=C\c1cc(F)ccc1S(=O)(=O)Nc1ccc2c(c1C(=O)O)OC[C@@H]1C[C@]21C` (racemic) [(1aRS,7bSR)-5-[2-((Z)-3-Diethylaminoprop-1-enyl)-4-fluorobenzenesulfonylamino]-7b-methyl-1,1a,2,7b-tetrahydrocyclopropa[c]chromene-4-carboxylic acid], for which the IC50 was under 50 nM.

On to “(1aRS,7bSR)-5-{2[(Z)-3-((R)-3-Hydroxypyrrolidin-1-yl)aminoprop-1-enyl]-4-fluorobenzene-sulfonylamino}-1,1a,2,7b-tetrahydro-cyclopropa[c]chromene-4-carboxylic acid”, for which the IC50 is 50 to 500 nM.

On to `CCN(CC)C/C=C\c1ccccc1S(=O)(=O)Nc1ccc2c(c1C(=O)O)OCC1CC21` (single isomer, unassigned) [listing 1 of 2 here], for which the 50% inhibitory concentration (IC50) was in the range of 50 to 500 nM.

In the case of `CCNC/C=C\c1cc(F)ccc1S(=O)(=O)Nc1ccc2c(c1C(=O)O)OCC1CC21` (single isomer, unassigned) [listing 1 of 2 here], the IC50 fell in the range of 50 to 500 nM.

As for `CCN1CC[C@@H](N(C)C(=O)Cc2cc(F)ccc2S(=O)(=O)Nc2ccc3c(c2C(=O)O)OC[C@@H]2C[C@H]32)C1` (mixture of isomers), the half-maximal inhibitory concentration (IC50) was 50 to 500 nM.

Regarding `CCN1CC[C@@H](NC(=O)Cc2cc(F)ccc2S(=O)(=O)Nc2ccc3c(c2C(=O)O)OC[C@@H]2C[C@H]32)C1` (mixture of isomers), the IC50 is 50 to 500 nM.

Regarding `CCNC/C=C\c1cc(F)ccc1S(=O)(=O)Nc1ccc2c(c1C(=O)O)OCC1CC21` (single isomer, unassigned) [listing 2 of 2 here], the IC50 was under 50 nM.

For the molecule `CCN1CC[C@H](N(C)C(=O)Cc2cc(F)ccc2S(=O)(=O)Nc2ccc3c(c2C(=O)O)OC[C@@H]2C[C@H]32)C1` (mixture of isomers), the half-inhibitory concentration (IC50) fell in the range of 50 to 500 nM.

Turning to `CN(C)CCCCNc1ccccc1S(=O)(=O)Nc1ccc2c(c1C(=O)O)OCC1CC21` (single isomer, unassigned), the IC50 was under 50 nM.

In the case of `CCN1CC[C@@H](Cc2cc(F)ccc2S(=O)(=O)Nc2ccc3c(c2C(=O)O)OCC2CC32)C1` (single isomer, unassigned) [listing 1 of 2 here], the IC50 was under 50 nM.

On to `CCN(CC)CC/C=C\c1cc(F)ccc1S(=O)(=O)Nc1ccc2c(c1C(=O)O)OC[C@@H]1C[C@H]21` (racemic) [(1aRS,7bSR)-5-[2((Z)-4-Diethylaminobut-1-enyl)-4-fluorobenzenesulfonyl-amino]-1,1a,2,7b-tetrahydrocyclopropa[c]chromene-4-carboxylic acid], for which the IC50 was under 50 nM.

For “(1aRS,7bSR)-5-{2[(Z)-3-((S)-3-hydroxypyrrolidin-1-yl)aminoprop-1-enyl]-4-fluorobenzenesulfonylamino}-1,1a,2,7b-tetrahydrocyclopropa[c]chromene-4-carboxylic acid”, the half-maximal inhibitory concentration (IC50) was 50 to 500 nM.

`O=C(O)c1c(NS(=O)(=O)c2ccc(F)cc2/C=C\CN2CCCC2)ccc2c1OCC1CC21` (single isomer, unassigned) [listing 2 of 2 here]: the IC50 fell in the range of 50 to 500 nM.

Take `CCN(CC)C/C=C\c1ccccc1S(=O)(=O)Nc1ccc2c(c1C(=O)O)OCC1CC21` (single isomer, unassigned) [listing 2 of 2 here]: the IC50 was under 50 nM.

For the molecule `O=C(O)c1c(NS(=O)(=O)c2ccc(F)cc2/C=C\CN2CC(O)C2)ccc2c1OC[C@@H]1C[C@H]21` (racemic) [(1aRS,7bSR)-5-{2[(Z)-3-(3-Hydroxyazetidin-1-yl)prop-1-enyl]-4-fluorobenzene-sulfonylamino}-1,1a,2,7b-tetrahydrocyclopropa[c]chromene-4-carboxylic acid], the IC50 is under 50 nM.

On to `O=C(O)c1c(NS(=O)(=O)c2ccccc2)ccc2c3c(cnc12)OCC3`, for which the IC50 is under 50 nM.

In the case of `CC(C)NC/C=C\c1cc(F)ccc1S(=O)(=O)Nc1ccc2c(c1C(=O)O)OC[C@@H]1C[C@H]21` (racemic) [(1aRS,7bSR)-5-{2[(Z)-3-(propan-2-yl)aminoprop-1-enyl]-4-fluorobenzene-sulfonylamino}-1,1a,2,7b-tetrahydrocyclopropa[c]chromene-4-carboxylic acid], the IC50 is 50 to 500 nM.

Consider `CCN1CCC[C@H]1C(=O)N(C)Cc1cc(F)ccc1S(=O)(=O)Nc1ccc2c(c1C(=O)O)OC[C@@H]1C[C@H]21` (mixture of isomers), for which the IC50 is 50 to 500 nM.

In the case of `CCN1CC[C@@H](Cc2cc(F)ccc2S(=O)(=O)Nc2ccc3c(c2C(=O)O)OCC2CC32)C1` (single isomer, unassigned) [listing 2 of 2 here], the IC50 is 50 to 500 nM.

As for `CCN(CC)C/C=C\c1cc(F)ccc1S(=O)(=O)Nc1ccc2c(c1C(=O)O)OC[C@@H]1[C@H]2C1(F)F` (racemic) [(1aRS,7bSR)-5-[2-((Z)-3-Diethylaminoprop-1-enyl)-4-fluorobenzene-sulfonylamino]-1,1-difluoro-1,1a,2,7b-tetrahydrocyclopropa[c]chromene-4-carboxylic acid], the half-maximal inhibitory concentration (IC50) is under 50 nM.

Regarding `CCN(CC)C/C=C/c1cc(F)ccc1S(=O)(=O)Nc1ccc2c(c1C(=O)O)OC[C@@H]1C[C@]21C` (racemic) [(1aRS,7bSR)-5-[2-((E)-3-Diethylaminoprop-1-enyl)-4-fluorobenzenesulfonylamino]-7b-methyl-1,1a,2,7b-tetrahydrocyclopropa[c]chromene-4-carboxylic acid], the half-maximal inhibitory concentration (IC50) lay within 50 to 500 nM.

Another assay deals with NASH mice. The assay can be described thus: Non-alcoholic steatohepatitis (STZ + high fat diet) mouse model. The note with it: Telmisartan 10 mg/kg once daily oral, 5 to 9 weeks of age; Vehicle 18.8±1.0 g. Type of assay: in vivo. The method, then:
NASH was induced in 48 male mice by a single subcutaneous injection of 200 μg streptozotocin (STZ; Sigma-Aldrich) in the back of mice 2 days after birth, and by feeding with high fat diet (HFD; 57 kcal % fat) after 4 weeks of age. At 5 weeks of age, the NASH mice were randomized into 6 groups of 8 mice based on body weight. Eight male littermates, fed with normal diet (without STZ treatment, were used for the Normal group. Vehicle, Compound A and Telmisartan were administered by the oral route in a volume of 10 mL/kg body weight.
Compound A was administered twice daily at doses of 1, 3 or 10 mg/kg body weight (i.e., 2, 6 or 20 mg/kg/day) and once daily at dose of 30 mg/kg body weight. Telmisartan was administered once daily at a dose of 10 mg/kg body weight.
C57BL/6 mice (15-day pregnant female) were obtained from Charles River Laboratories Japan (Japan). The animals were maintained in a SPF facility under controlled conditions of temperature (23±2° C.), humidity (45±10%), lighting (12-hour artificial light and dark cycles; light from 8:00 to 20:00) and air exchange. A high pressure (20±4 Pa) was maintained in the experimental room to prevent contamination of the facility.
Mice were fasted for 4 hours before blood was collected at the time of sacrifice. HbA1c levels were quantified in whole blood samples by DCA Vantage Analyzer (Siemens Healthcare Diagnostics, USA). For plasma biochemistry, blood was collected in polypropylene tubes with anticoagulant (Novo-Heparin;) and centrifuged at 1,000×g for 15 minutes at 4° C. The supernatant was collected and stored at −80° C. until use. Plasma levels of glucose, ALT, TG and total cholesterol were measured by FUJI DRI-CHEM 7000 (Fujifilm, Japan). Plasma insulin concentration was quantified by the Ultra Sensitive Mouse Insulin ELISA Kit.
Liver total lipid-extracts were obtained by Folch's method (Folch J. et al., J. Biol. Chem. 1957; 226: 497). Liver samples were homogenized in chloroform-methanol (2:1, v/v) and incubated overnight at room temperature. After washing with chloroform-methanol-water (8:4:3, v/v/v), the extracts were evaporated to dryness, and dissolved in isopropanol. Liver TG levels were measured by Triglyceride E-test (Wako Pure Chemical Industries). Extracts were diluted 2-fold in isopropanol when the TG content exceeded the detection limit.
For HE staining, sections were cut from paraffin blocks of liver tissue prefixed in Bouin's solution and stained with Lillie-Mayer's Hematoxylin (Muto Pure Chemicals, Japan) and eosin solution (Wako Pure Chemical Industries). NAFLD Activity score (NAS) was calculated according to the criteria of Kleiner (Kleiner D E et al., Hepatology, 2005; 41:1313). To visualize collagen deposition, Bouin's fixed liver sections were stained using picro-Sirius red solution (Waldeck, Germany). To visualize macro- and microvesicular fat, cryosections were cut from frozen liver tissues, prefixed in 10% neutral buffered formalin, embedded in Tissue-Tek O.C.T. compound (Sakura Finetek Japan, Japan), and stained with Oil Red O (Sigma-Aldrich). For immunohistochemistry, sections were cut from frozen liver tissues embedded in Tissue-Tek O.C.T. compound and fixed in acetone. Endogenous peroxidase activity was blocked using 0.03% H2O2 for 5 minutes, followed by incubation with Block Ace (Dainippon Sumitomo Pharma, Japan) for 10 minutes. The sections were incubated with a 200-fold dilution of anti-F4/80 antibody (BMA Biomedicals, Switzerland) over night at 4° C. After incubation with secondary antibody (HRP-Goat anti-rat antibody, Invitrogen, USA), enzyme-substrate reactions were performed using 3, 3′-diaminobenzidine/H2O2 solution (Nichirei, Japan). […]
Regarding `CCCc1nc2c(C)cc(-c3nc4ccccc4n3C)cc2n1Cc1ccc(-c2ccccc2C(=O)O)cc1` [Telmisartan, reference compound], the “Mean body weight at the day before sacrifice” value came to 15.6 ± 1.8 g.

The assay is the same for the next values; noted with them: Telmisartan 10 mg/kg once daily; Vehicle 1.07±0.18%.
For `CCCc1nc2c(C)cc(-c3nc4ccccc4n3C)cc2n1Cc1ccc(-c2ccccc2C(=O)O)cc1` [Telmisartan, reference compound], the “Fibrosis area (Sirius red-positive area)” value turned out to be 0.42±0.08%.

Staying with this assay, now noted: Telmisartan 10 mg/kg once daily; Vehicle 3.57±0.88%.
As to `CCCc1nc2c(C)cc(-c3nc4ccccc4n3C)cc2n1Cc1ccc(-c2ccccc2C(=O)O)cc1` [Telmisartan, reference compound], the “Inflammation area (F4/80-positive area)” value worked out at 3.84±0.86%.

The assay is the same for the next values; noted with them: Telmisartan 10 mg/kg once daily; Vehicle 5.4±0.9.
Turning to `CCCc1nc2c(C)cc(-c3nc4ccccc4n3C)cc2n1Cc1ccc(-c2ccccc2C(=O)O)cc1` [Telmisartan, reference compound], the “NAFLD Activity score (NAS)” value is listed as 2.3±0.7.

Staying with this assay, now noted: Telmisartan 10 mg/kg once daily; Vehicle 23.57±6.52%.
As to `CCCc1nc2c(C)cc(-c3nc4ccccc4n3C)cc2n1Cc1ccc(-c2ccccc2C(=O)O)cc1` [Telmisartan, reference compound], the “Fat deposition area (oil red-positive area)” value was 17.29±7.66%.

The assay is the same for the next values; noted with them: Telmisartan 10 mg/kg once daily; Vehicle 67.3±29.0.
For `CCCc1nc2c(C)cc(-c3nc4ccccc4n3C)cc2n1Cc1ccc(-c2ccccc2C(=O)O)cc1` [Telmisartan, reference compound], the “Liver TG content” value is 30.7±11.4 mg/g liver.
